# Results reported in patent US6447748B1, “Benzamide compounds for cancer imaging and therapy” (Research Corporation Technologies, Inc., priority 1993, dated 2002).
# Read-outs that look alike come from different tables or passages of the source.
# Columns and labels:
# [1] = biological target: sigma sites labeled by 4-[125I]PEMP in guinea pig brain membranes; type: binding; details: read-out: Ki against 4-[125I]PEMP
# Description: (§1) Intact adherent cells were washed (2×1 mL) with 10 mM phosphate buffer (pH=7.2). […] Each data point represent an average of three values. The cells were incubated at 37° C. for 1 hr. and subsequently washed with phosphate buffer (10 mM; pH 7.2) (3×1 mL). The cells were then dissolved in 0.2 N NaOH (1.0 mL) and the activity counted on a Beckman (DP 5500) Gamma Counter. A similar procedure was repeated with 2-[^125I]BP with MCF-7, MDA-MB 231 and T47D breast cancer cells.
# (§2) The affinity of compounds for sites labeled by 4-[^125I]PEMP was determined by homologous and heterologous in vitro competitive binding assays in intact MCF-7 breast cancer cells and guinea pig brain membranes labeled by 4-[^125I]PEMP. The assays were prepared according to the procedure described in Example 14.
# [2] = tested on: Sigma-1 sites, MCF-7 breast adenocarcinoma
# Sigma-2 [3] = biological target: T1, Sigma-2 (Rattus norvegicus, UniProt Q5U3Y7); assay: Sigma-2 binding assay, rat liver membranes, [3H]DTG + dextrallorphan (Example 9)
# T1 sequence (Q5U3Y7 1-176): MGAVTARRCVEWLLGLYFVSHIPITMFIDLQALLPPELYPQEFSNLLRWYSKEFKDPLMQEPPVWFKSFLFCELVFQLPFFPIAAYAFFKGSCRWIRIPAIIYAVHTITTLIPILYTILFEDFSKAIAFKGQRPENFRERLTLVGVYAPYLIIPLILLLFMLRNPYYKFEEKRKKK
# DOPAMINE D-2 = biological target: T2, DOPAMINE D-2 (Rattus norvegicus, UniProt P61169); assay: Dopamine D-2 binding, rat brain, [3H]-(−)-sulpiride; details: Table 2 of Example 9
# T2 construct: from tissue
# PCP = PCP binding, rat brain, [3H]TCP; details: Table 2 of Example 9
# [4] = biological target: MUSC (muscarinic receptors); type: binding; details: read-out: Ki MUSC RAT BRAIN [3H]QNB
# Sigma-1 [5] = biological target: T3, Sigma-1 (Cavia porcellus, UniProt Q60492); assay: Sigma-1 binding assay, guinea pig brain membranes, [3H]-(+)-pentazocine (Example 9)
# Description: A plasma membrane-mitochondrial (P2) membrane fraction was prepared from frozen guinea pig brains (Pel-Freeze, Rogers, Ak.), minus cerebellum. The brain tissue was thawed slowly before homogenization. A crude P2 membrane fraction was also prepared from the livers of Sprague-Dawley rats (150-220 g, Taconic Farms). The animals were decapitated and their livers were minced and homogenized. The tissue homogenization was carried out at 4° C. in 10 mM tris-HCl/0.32 M sucrose, pH=7.4 using 10 motor-driven strokes in a Potter-Elvehjem Teflon glass homogenizer. The crude homogenate was centrifuged for 10 min at 1000 g and the crude nuclear (P1) pellet was discarded. Supernatants were centrifuged at 31000×g for 15 min to yield a plasma membrane-mitochondrial pellet (P2). This pellet was resuspended in 3 ml/g in 10 mM tris-HCl, pH 7.4 and used for binding studies. Protein concentrations were determined by the method of Lowry.
# Filters were washed twice with ice-cold 10 mM tris-HCL. Prior to use, filters were soaked in 0.5% polyethyleneimine for about 30 min at 25° C.
# (§4) When the assay was terminated, the membranes were filtered and the filtrate washed twice as above. The radioactivity was counted in Ecoscint (National Diagnostics, Manville, N.J.) after an overnight extraction of counts.
# (§5) Ki values were calculated from the IC50 values using Cheng-Prusoff equation.
# [6] = biological target: T4, sigma sites labeled by 4-[125I]BP in MCF-7 breast cancer cells (Homo sapiens, UniProt Q5BJF2); assay: Homologous and heterologous competition for 4-[125I]BP binding in intact MCF-7 cells; details: 37° C. for 1 hr., unit printed in b378 only, not in the table
# T4 construct: Intact adherent cells were washed (2×1 mL) with 10 mM phosphate buffer; endogenous in cells; host or cells: intact adherent MCF-7 breast cancer cells
# [7] = tested on: MCF-7 breast cancer cells; set-up: species or system human; details: read-out: Kd, saturable binding
# Source text: The cells were adherent and split weekly in a 1:20 ratio using trypsin/EDTA (GIBCO).
# [8] = Biodistribution of 4-[125I]PEMP in Sprague Dawley rats; type: in vivo; details: for Biodistribution Blood / Biodistribution Bone / Biodistribution Brain / Biodistribution Heart / Biodistribution Kidney / Biodistribution Liver / Biodistribution Lung / Biodistribution Muscle / Biodistribution Spleen / Biodistribution Thyroid: average of four rats
# Description: Balb/c nu/nu mice (17-22 g) were injected intravenously with 0.2 ml of a saline solution containing [^125I]PAB (5-6 μCi). […] The values obtained were normalized to a mouse weighing 20 g.
# Biodistribution experiments were performed to assess the clearance of N-[(4-[^125I]-iodophenyl)ethyl]-N-methyl-2-(1-piperidinyl)-ethylamine, 4-[^125I]PEMP. The compound was prepared according to the procedure described in Example 16. For in vivo studies, Sprague Dawley rats were used. Animal biodistribution assays were performed according to the procedure described in Example 11.
# [9] = tested on: sites labeled by 4-[125I]PEMP in MCF-7 breast tumor cells
# Description: as §1, §2
# [10] = tested on: A2058 human malignant melanoma cells; assay: In vitro competitive binding of nonradioactive IPAB against [125I]PAB in A2058 cells; details: 37° C. for 5 hr., read-out: Ki, nonradioactive IPAB inhibiting binding of radioactive IPAB
# Description: These cells were grown in DMEM2 medium (Dulbecco's modification of Eagle's medium, EMEM) supplemented with 10% fetal bovine serum and 0.03% L-glutamine.
# A2058 cells, grown as described above, were harvested with calcium and magnesium free phosphate buffer (0.1 M) containing 0.02% EDTA. Cells were washed twice with ice-cold RPMI 1640 medium (Gibco) without glutamine and resuspended in the same medium. Carrier-free [^125I]PAB (0.1 ml) was added to eight aliquots of 0.1 ml test A2058 cells (1.5×10^6 cells in suspension). To observe competitive binding by non-radioactive IPAB, varying concentrations of non-radioactive IPAB were added in a volume of 0.1 ml. Cells were incubated at 37° C. for 5 hr. after addition of radioactive and nonradioactive IPAB.
# After incubation, cells were collected by centrifugation for 5 min and washed twice with RPMI 1640 medium. The radioactivity bound to cells was counted using a Packard Autogamma 5650 scintillation counter.
# Data were analyzed with an INPLOT® iterative, non-linear least square curve fitting program.
# Sigma-2 [11] = biological target: T1, Sigma-2; assay: Sigma-2 binding assay, rat liver membranes, [3H]DTG + dextrallorphan (Example 8); details: read-out: Ki Sigma-2 Rat Liver; 3 nM [3H]DTG, 1 micromolar dextrallorphan
# Description: (§6) A crude P2 membrane fraction was also prepared from the livers of rat Sprague-Dawley rats (150-220 g, Taconic Farms) liver. The animals were decapitated and their livers were minced and homogenized. The tissue homogenization was carried out at 4° C. in ml/g tissue weight of 10 mM Tris-HCl/0.32 M sucrose, pH=7.4 using 10 motor-driven strokes in a Potter-Elvehjem Teflon glass homogenizer. The crude homogenate was centrifuged for 10 min at 1000 g and the crude nuclear (P1) pellet was discarded. Supernatants were centrifuged at 31000 g for 15 min to yield a plasma membrane-mitochondrial pellet (P2). This pellet was resuspended in 3 ml/g in 10 mM tris-HCl, pH 7.4 and used for binding studies. Protein concentrations were determined by the method of Lowry.
# (§7) Filters were washed twice with ice-cold buffer. Prior to use, filters were soaked in 0.5% polyethyleneimine for about 30 min at 25° C.
# as §4, §5
# Sigma-1 [12] = biological target: T3, Sigma-1; assay: Sigma-1 binding assay, guinea pig brain membranes, [3H]-(+)-pentazocine (Example 8); details: read-out: Ki Sigma-1 Guinea Pig Brain; 3 nM [3H]-(+)-pentazocine, 60 min at 37° C.
# Description: as §6, §7, §4, §5
# [13] = biological target: T5, Sigma-2, rat C6 glioma cells (Rattus norvegicus, UniProt Q5U3Y7); assay: Sigma-2 binding assay, C6 glioma cell homogenates, [3H]DTG + dextrallorphan (Example 8); details: read-out: Ki Sigma-2 C6 Glioma Cells; 3 nM [3H]DTG, 1 micromolar dextrallorphan
# T5 sequence (Q5U3Y7 1-176): T1 sequence (Q5U3Y7 1-176)
# Description: as §7, §4, §5
# [14] = biological target: Sigma-1 sites, T47D breast ductal carcinoma
# [15] = tested on: human melanoma xenograft tumors (A2058); assay: Scintigraphic imaging of nude mice bearing human melanoma xenografts; type: in vivo, Balb/c nu/nu mice; details: for detection in the tumor, scintigraphic image: 6 and 24 hrs. post injection; for uptake in the liver, scintigraphic image: 6 and 24 hrs. post-administration
# Description: (§3) A2058 cells, derived from a brain metastasis of human malignant melanoma (Todaro et al. 1980 Proc. Natl. Acad. Sci. USA 77: 5258) were obtained from the National Institutes of Health. A human lung adenocarcinoma cell line, NCI-838, was obtained from the National Cancer Institute. These cells were grown in DMEM2 medium (Dulbecco's modification of Eagle's medium, […]) supplemented with 10% fetal bovine serum and 0.03% L-glutamine.
# Balb/c nu/nu mice (17-22 g) bearing human melanoma or non-small cell lung carcinoma xenograft tumors were injected intravenously with 0.2 ml of saline solution containing [^131I]PAB or [^131I]DAB (150-200 μCi). The animals were anesthetized with ketamine containing rompun before the imaging studies. The images were obtained using a scintigraphic camera with a pin-hole collimator at 6 and 24 hr. post injection.
# [16] = tested on: human adenocarcinoma xenograft (NCI-838); assay: Scintigraphic imaging of nude mouse bearing human lung adenocarcinoma xenograft; type: in vivo, Balb/c nu/nu mice; details: 24 and 30 hrs. post-injection
# Description: as §3
# Balb/c nu/nu mice (17-22 g) bearing human melanoma or non-small cell lung carcinoma xenograft tumors were injected intravenously with 0.2 ml of saline solution containing [^131I]PAB or [^131I]DAB (150-200 μCi). The animals were anesthetized with ketamine containing rompun before the imaging studies. […]
# [17] = read-out: Ki SIGMA-2 RAT LIVER [3H]DTG + DEX, Table 2 of Example 9
# [18] = read-out: Ki SIGMA-1 GUINEA PIG BRAIN [3H]-(+)-PENT, Table 2 of Example 9, 120 min at 25° C.
# T4 sequence (Q5BJF2 whole entry): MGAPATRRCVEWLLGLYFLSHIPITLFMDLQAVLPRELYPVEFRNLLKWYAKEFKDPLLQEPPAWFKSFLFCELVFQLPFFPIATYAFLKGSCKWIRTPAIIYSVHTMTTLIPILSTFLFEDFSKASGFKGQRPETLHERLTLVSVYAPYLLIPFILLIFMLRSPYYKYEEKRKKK
# T2 sequence (P61169 whole entry): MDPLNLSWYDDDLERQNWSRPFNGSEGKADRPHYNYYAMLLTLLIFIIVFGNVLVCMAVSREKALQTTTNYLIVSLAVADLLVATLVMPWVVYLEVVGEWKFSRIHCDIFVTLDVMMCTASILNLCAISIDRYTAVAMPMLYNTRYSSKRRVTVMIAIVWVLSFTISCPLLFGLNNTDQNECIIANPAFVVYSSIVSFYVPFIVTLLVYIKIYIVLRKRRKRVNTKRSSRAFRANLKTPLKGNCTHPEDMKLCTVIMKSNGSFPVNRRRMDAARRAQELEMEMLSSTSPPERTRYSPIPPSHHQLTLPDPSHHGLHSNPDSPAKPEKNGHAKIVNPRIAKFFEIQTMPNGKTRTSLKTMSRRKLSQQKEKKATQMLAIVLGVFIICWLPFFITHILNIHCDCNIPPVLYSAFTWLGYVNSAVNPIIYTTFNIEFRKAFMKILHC
# T3 sequence (Q60492 whole entry): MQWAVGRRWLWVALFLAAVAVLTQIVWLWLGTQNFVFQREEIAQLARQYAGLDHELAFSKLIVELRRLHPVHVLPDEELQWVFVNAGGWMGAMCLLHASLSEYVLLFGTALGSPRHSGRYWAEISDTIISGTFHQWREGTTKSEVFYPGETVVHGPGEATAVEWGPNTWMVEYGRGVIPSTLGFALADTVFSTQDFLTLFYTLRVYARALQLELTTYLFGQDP
compound,measurement,setting,value
"CC(C)=CCN1CCC2(C)c3cc(O)ccc3CC1C2C (single isomer, unassigned; (+)) [(+)-Pentazocine]",Ki,[1],35.9 nM
same,specific binding to sigma-1 sites,[2],little or no specific binding
"O=C(NC1CCN(Cc2ccccc2)CC1)c1ccccc1I [2-IBP, (N-Benzylpiperidin-4-yl)-2-iodobenzamide]",Ki,Sigma-2 [3]; [17],29.6 ± 0.49 nM
same,Ki,DOPAMINE D-2,63.4 ± 10.8 nM
same,Ki,PCP,> 100000 nM
same,Ki,[4],> 100000 nM
same,Ki,Sigma-1 [5]; [18],1.64 ± 0.15 nM
"O=C(NC1CCN(Cc2ccccc2)CC1)c1cccc(I)c1 [3-IBP, (N-Benzylpiperidin-4-yl)-3-iodobenzamide]",Ki,Sigma-2 [3]; [17],84.6 ± 2.5 nM
same,Ki,DOPAMINE D-2,24.8 ± 0.02 nM
same,Ki,PCP,> 100000 nM
same,Ki,[4],> 100000 nM
same,Ki,Sigma-1 [5]; [18],3.02 ± 1.06 nM
"O=C(NC1CCN(Cc2ccccc2)CC1)c1ccc(I)cc1 [4-IBP, (N-Benzylpiperidin-4-yl)-4-iodobenzamide]",Ki,Sigma-2 [3]; [17],25.2 ± 1.28 nM
same,Ki,DOPAMINE D-2,382 ± 39 nM
same,Ki,PCP,> 100000 nM
same,Ki,[4],> 100000 nM
same,Ki,[6],4.8 ± 2 nM
"CN(CCc1ccc(I)cc1)CCN1CCCCC1 [4-IPEMP, N-[(4-I-iodophenyl)ethyl]-N-methyl-2-(1-piperidinyl)-ethylamine]",Ki,Sigma-2 [3],52.6 nM
same,Ki,Sigma-1 [5],7.02 nM
"O=C(NC1CCN(Cc2ccccc2)CC1)c1ccc(I)cc1 [4-[^125I]BP, ^125I-(N-Benzylpiperidin-4-yl)-4-iodobenzamide]",Kd,[7],26 nM
"CN(CCc1ccc([125I])cc1)CCN1CCCCC1 [4-[^125I]PEMP, N-[(4-[^125I]-iodophenyl)ethyl]-N-methyl-2-(1-piperidinyl)-ethylamine]",clearance,[8],"rapid clearance from the liver, lungs and kidneys"
same,Biodistribution Blood,[8]; 1 hr.,1.82 ± 0.20 % ID/whole organ
same,Biodistribution Bone,[8]; 1 hr.,0.23 ± 0.00 % ID/whole organ
same,Biodistribution Brain,[8]; 1 hr.,1.79 ± 0.21 % ID/whole organ
same,Biodistribution Heart,[8]; 1 hr.,0.30 ± 0.02 % ID/whole organ
same,Biodistribution Kidney,[8]; 1 hr.,4.57 ± 0.88 % ID/whole organ
same,Biodistribution Liver,[8]; 1 hr.,16.56 ± 2.19 % ID/whole organ
same,Biodistribution Lung,[8]; 1 hr.,4.91 ± 0.23 % ID/whole organ
same,Biodistribution Muscle,[8]; 1 hr.,15.60 ± 3.04 % ID/whole organ
same,Biodistribution Spleen,[8]; 1 hr.,2.52 ± 0.49 % ID/whole organ
same,Biodistribution Thyroid,[8]; 1 hr.,0.19 ± 0.02 % ID/whole organ
same,Biodistribution Blood,[8]; 6 hr.,2.59 ± 0.32 % ID/whole organ
same,Biodistribution Bone,[8]; 6 hr.,0.28 ± 0.01 % ID/whole organ
same,Biodistribution Brain,[8]; 6 hr.,0.57 ± 0.01 % ID/whole organ
same,Biodistribution Heart,[8]; 6 hr.,0.18 ± 0.00 % ID/whole organ
same,Biodistribution Kidney,[8]; 6 hr.,1.45 ± 0.03 % ID/whole organ
same,Biodistribution Liver,[8]; 6 hr.,6.39 ± 0.48 % ID/whole organ
same,Biodistribution Lung,[8]; 6 hr.,1.22 ± 0.12 % ID/whole organ
same,Biodistribution Muscle,[8]; 6 hr.,11.73 ± 0.63 % ID/whole organ
same,Biodistribution Spleen,[8]; 6 hr.,0.96 ± 0.10 % ID/whole organ
same,Biodistribution Thyroid,[8]; 6 hr.,0.20 ± 0.05 % ID/whole organ
same,Biodistribution Blood,[8]; 24 hr.,1.01 ± 0.12 % ID/whole organ
same,Biodistribution Bone,[8]; 24 hr.,0.17 ± 0.00 % ID/whole organ
same,Biodistribution Brain,[8]; 24 hr.,0.23 ± 0.00 % ID/whole organ
same,Biodistribution Heart,[8]; 24 hr.,0.05 ± 0.00 % ID/whole organ
same,Biodistribution Kidney,[8]; 24 hr.,0.50 ± 0.02 % ID/whole organ
same,Biodistribution Liver,[8]; 24 hr.,1.83 ± 0.16 % ID/whole organ
same,Biodistribution Lung,[8]; 24 hr.,0.34 ± 0.03 % ID/whole organ
same,Biodistribution Muscle,[8]; 24 hr.,5.55 ± 1.25 % ID/whole organ
same,Biodistribution Spleen,[8]; 24 hr.,0.28 ± 0.03 % ID/whole organ
same,Biodistribution Thyroid,[8]; 24 hr.,0.58 ± 0.03 % ID/whole organ
CCCN1CCC[C@H](c2cccc(O)c2)C1 [(+)-PPP],Ki,[6],> 1000 nM
CN(CCc1ccc(Cl)c(Cl)c1)CCN1CCCC1 [BD1008],Ki,[1],5.6 nM
same,inhibition of specific binding of 4-[125I]PEMP,[9],"high affinity, concentration-dependent inhibition of specific binding"
"CN(CCc1ccc(Br)cc1)CCN1CCCCC1 [Br-PEMP, N-[2-(4-Bromophenyl)ethyl]-N-methyl-2-(1-piperidinyl)ethylamine]",Ki,Sigma-2 [3],51.8 nM
same,Ki,Sigma-1 [5],6.27 nM
"O=C(NCCN1CCCCC1)c1ccc(I)cc1 [IPAB, (2-Piperidinylaminoethyl)4-iodobenzamide]",Ki,[10],6.8 nM
same,Ki,Sigma-2 [11],24 nM
same,Ki,Sigma-1 [12],0.89 nM
same,Ki,[13],130 nM
O=C(CCCN1CCC2(CC1)C(=O)NCN2c1ccccc1)c1ccc(F)cc1 [Spiperone],Ki,[6],247 ± 37 nM
CC(C)=CCN1CC[C@]2(C)c3cc(O)ccc3C[C@H]1[C@H]2C [[^3H] (+)-pentazocine],specific binding to sigma-1 sites,[2],No specific binding
same,Kd,[14]; read-out: Kd1 Sigma-1,6.62 nM
same,Kd,[14]; read-out: Kd4 Sigma-1,261 nM
"CCN(CC)CCNC(=O)c1ccc([131I])cc1 [[^131I]DAB, ^131I-N-(diethylaminoethyl)4-iodobenzamide, reference compound]","detection in the tumor, scintigraphic image",[15],no [^131I]DAB was detected in the tumor
same,"uptake in the liver, scintigraphic image",[15],considerable uptake
^131I(2-Piperidinylaminoethyl)4-iodobenzamide [[^131I]PAB],"detection in the tumor, scintigraphic image",[15],detected only within the tumor
same,"uptake in the liver, scintigraphic image",[15],Little or no
same,"visualization of implanted tumor, scintigraphic image",[16],easily visualized the implanted tumor
